# Data from PubChem BioAssay AID2060627 (Molecular Pharmacology Branch, DTP, NCI, 2025).
# Tested on: 156681-154-R-J1-PDC complex spheroid viability
# Assay: Anticancer human tumor 156681-154-R-J1-PDC patient-derived melanoma cell line growth inhibition [CLK]
# Conditions: for IC50: curve of first compound; for viability, T/C: stronger effect = lower value
# Method in brief: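 Patient-derived tumor cells grown as complex spheroids with HUVEC endothelial cells and mesenchymal stem cells, treated with drug combinations. Concentrations descend in half-log steps from near clinical Cmax, or from 10 microM if Cmax unknown.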
# [1] = second compound 0.0316 µM, first compound 0.0316 µM
# [2] = second compound 0.0316 µM, first compound 0.1 µM
# [3] = second compound 0.0316 µM, first compound 0.316 µM
# [4] = second compound 0.0316 µM, first compound 1 µM
# [5] = second compound 0.0316 µM, first compound 3.16 µM
# [6] = second compound 0.0316 µM, first compound 10 µM
# [7] = second compound 0.1 µM, first compound 0.0316 µM
# [8] = second compound 0.1 µM, first compound 0.1 µM
# [9] = second compound 0.1 µM, first compound 0.316 µM
# [10] = second compound 0.1 µM, first compound 1 µM
# [11] = second compound 0.1 µM, first compound 3.16 µM
# [12] = second compound 0.1 µM, first compound 10 µM
# [13] = second compound 0.316 µM, first compound 0.0316 µM
# [14] = second compound 0.316 µM, first compound 0.1 µM
# [15] = second compound 0.316 µM, first compound 0.316 µM
# [16] = second compound 0.316 µM, first compound 1 µM
# [17] = second compound 0.316 µM, first compound 3.16 µM
# [18] = second compound 0.316 µM, first compound 10 µM
# [19] = second compound 1 µM, first compound 0.0316 µM
# [20] = second compound 1 µM, first compound 0.1 µM
# [21] = second compound 1 µM, first compound 0.316 µM
# [22] = second compound 1 µM, first compound 1 µM
# [23] = second compound 1 µM, first compound 3.16 µM
# [24] = second compound 1 µM, first compound 10 µM
# [25] = second compound 3.16 µM, first compound 0.0316 µM
# [26] = second compound 3.16 µM, first compound 0.1 µM
# [27] = second compound 3.16 µM, first compound 0.316 µM
# [28] = second compound 3.16 µM, first compound 1 µM
# [29] = second compound 3.16 µM, first compound 3.16 µM
# [30] = second compound 3.16 µM, first compound 10 µM
# [31] = second compound 10 µM, first compound 0.0316 µM
# [32] = second compound 10 µM, first compound 0.1 µM
# [33] = second compound 10 µM, first compound 0.316 µM
# [34] = second compound 10 µM, first compound 1 µM
# [35] = second compound 10 µM, first compound 3.16 µM
# [36] = second compound 10 µM, first compound 10 µM
# 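Note: spheroids exposed to the agents for seven days.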
# 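Throughout, for viability, T/C: 100% = DMSO vehicle control viability.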
structure (smiles),measurement,setting,value
CC1COCCN1c1cc(C2(S(C)(=N)=O)CC2)nc(-c2ccnc3[nH]ccc23)n1 (centres undefined) + CN1CCN(c2cc(C(=O)Nc3cc4cc(-c5cnn(C)c5)ccc4cn3)ccn2)CC1,IC50,second compound 0.0316 µM,1.2 µM
same,IC50,second compound 0.1 µM,1.11 µM
same,IC50,second compound 0.316 µM,< 0.0316 µM
same,IC50,second compound 1 µM,< 0.0316 µM
same,IC50,second compound 3.16 µM,< 0.0316 µM
same,IC50,second compound 10 µM,< 0.0316 µM
same,"viability, T/C",[1],94.5%
same,"viability, T/C",[2],98.7%
same,"viability, T/C",[3],85%
same,"viability, T/C",[4],54%
same,"viability, T/C",[5],25.6%
same,"viability, T/C",[6],13%
same,"viability, T/C",[7],88.2%
same,"viability, T/C",[8],91.1%
same,"viability, T/C",[9],78.2%
same,"viability, T/C",[10],53.1%
same,"viability, T/C",[11],22.6%
same,"viability, T/C",[12],11.9%
same,"viability, T/C",[13],22.2%
same,"viability, T/C",[14],20.3%
same,"viability, T/C",[15],19.3%
same,"viability, T/C",[16],18.1%
same,"viability, T/C",[17],9.6%
same,"viability, T/C",[18],5.87%
same,"viability, T/C",[19],0.2%
same,"viability, T/C",[20],1.01%
same,"viability, T/C",[21],0.26%
same,"viability, T/C",[22],1.47%
same,"viability, T/C",[23],0.89%
same,"viability, T/C",[24],0.75%
same,"viability, T/C",[25],0.13%
same,"viability, T/C",[26],0.38%
same,"viability, T/C",[27],0.22%
same,"viability, T/C",[28],0.27%
same,"viability, T/C",[29],2.37%
same,"viability, T/C",[30],1.99%
same,"viability, T/C",[31],0.16%
same,"viability, T/C",[32],1.25%
same,"viability, T/C",[33],0.69%
same,"viability, T/C",[34],1.26%
same,"viability, T/C",[35],1.36%
same,"viability, T/C",[36],1.82%
CC(=O)O[C@H]1C(=O)[C@@]2(C)[C@H]([C@H](OC(=O)c3ccccc3)[C@]3(O)C[C@H](OC(=O)[C@H](O)[C@@H](NC(=O)c4ccccc4)c4ccccc4)C(C)=C1C3(C)C)[C@]1(OC(C)=O)CO[C@@H]1C[C@@H]2O + CNC(=O)c1ccc(Nc2nc(OC3CCCC3)c3c(-c4ccc5nc(C)oc5c4)c[nH]c3n2)c(OC)c1,IC50,second compound 0.0316 µM,< 0.0316 µM
same,IC50,second compound 0.1 µM,< 0.0316 µM
same,IC50,second compound 0.316 µM,> 10 µM
same,IC50,second compound 1 µM,> 10 µM
same,IC50,second compound 3.16 µM,> 10 µM
same,IC50,second compound 10 µM,> 10 µM
same,"viability, T/C",[1],16.8%
same,"viability, T/C",[2],19%
same,"viability, T/C",[3],13.9%
same,"viability, T/C",[4],19.6%
same,"viability, T/C",[5],30.7%
same,"viability, T/C",[6],41.1%
same,"viability, T/C",[7],36.3%
same,"viability, T/C",[8],24.6%
same,"viability, T/C",[9],38.9%
same,"viability, T/C",[10],44.2%
same,"viability, T/C",[11],61.3%
same,"viability, T/C",[12],56.1%
same,"viability, T/C",[13],78.4%
same,"viability, T/C",[14],88.8%
same,"viability, T/C",[15],55.4%
same,"viability, T/C",[16],91.9%
same,"viability, T/C",[17],102%
same,"viability, T/C",[18],95.3%
same,"viability, T/C",[19],58.5%
same,"viability, T/C",[20],66.6%
same,"viability, T/C",[21],65.5%
same,"viability, T/C",[22],71.7%
same,"viability, T/C",[23],85%
same,"viability, T/C",[24],76.4%
same,"viability, T/C",[25],63.2%
same,"viability, T/C",[26],60.1%
same,"viability, T/C",[27],56%
same,"viability, T/C",[28],71.4%
same,"viability, T/C",[29],78.6%
same,"viability, T/C",[30],58.4%
same,"viability, T/C",[31],51.6%
same,"viability, T/C",[32],51.3%
same,"viability, T/C",[33],55.2%
same,"viability, T/C",[34],47.1%
same,"viability, T/C",[35],57.5%
same,"viability, T/C",[36],55.2%
